According to patent publication US9924721B2 (priority 2013, dated 2018):
Marks after values point to notes of the source that are not given here.

conditions: pH 2.7

| Structure (SMILES) | Log P |
| --- | --- |
| CCOC(=O)C(C(=O)N1CCC(c2nc(C3=NOC(c4ccccc4OS(C)(=O)=O)C3)cs2)CC1)n1cc(C(F)(F)F)nc1C (stereo not shown) [Example I-12] | 2.99^[a] |
| CCOC(=O)C(C(=O)N1CCC(c2nc(C3=NOC(c4ccccc4C=O)C3)cs2)CC1)n1nc(C(F)F)cc1C(F)F (stereo not shown) [Example I-14] | 3.40^[a] |
| C#CCOc1cccc(F)c1C1CC(c2csc(C3CCN(C(=O)C(C(=O)OC(CC)CCCCC)n4nc(C(F)F)cc4C(F)F)CC3)n2)=NO1 (stereo not shown) [Example I-18] | 5.22^[a] |
| CCCCCC(CC)OC(=O)C(C(=O)N1CCC(c2nc(C3=NOC(c4ccccc4C=O)C3)cs2)CC1)n1nc(C(F)F)cc1C(F)F (stereo not shown) [Example I-21] | 5.20^[a] |
| CCCCCC(CC)OC(=O)C(C(=O)N1CCC(c2nc(C3=NOC(c4c(F)cccc4OS(C)(=O)=O)C3)cs2)CC1)n1nc(C(F)F)cc1C(F)F (stereo not shown) [Example I-22] | 4.04^[a] |
| C#CCOc1cccc(F)c1C1CC(c2csc(C3CCN(C(=O)C(Br)C(=O)OCCOC)CC3)n2)=NO1 (stereo not shown) [Example I-24] | 2.85^[a] |
| CC(C)OC(=O)C(Br)C(=O)N1CCC(c2nc(C3=NOC(c4ccccc4C=O)C3)cs2)CC1 (stereo not shown) [Example I-29] | 3.11^[a] |
| C#CCOc1cccc(Cl)c1C1CC(c2csc(C3CCN(C(=O)C(Br)C(=O)OCC)CC3)n2)=NO1 (stereo not shown) [Example I-31] | 3.20^[a] |
| C#CCOc1ccccc1C1CC(c2csc(C3CCN(C(=O)C(Br)C(=O)OC(C)C)CC3)n2)=NO1 (stereo not shown) [Example I-32] | 3.43^[a] |
| C#CCOc1cccc(F)c1C1CC(c2csc(C3CCN(C(=O)C(Br)C(=O)OC(CC)CCCCC)CC3)n2)=NO1 (stereo not shown) [Example I-35] | 4.89^[a] |
| COCCOC(=O)C(Br)C(=O)N1CCC(c2nc(C3=NOC(c4ccccc4OS(C)(=O)=O)C3)cs2)CC1 (stereo not shown) [Example I-36] | 2.53^[a] |
| CC(C)OC(=O)C(Br)C(=O)N1CCC(c2nc(C3=NOC(c4ccccc4OS(C)(=O)=O)C3)cs2)CC1 (stereo not shown) [Example I-37] | 2.99^[a] |
| CCCCCC(CC)OC(=O)C(Br)C(=O)N1CCC(c2nc(C3=NOC(c4ccccc4OS(C)(=O)=O)C3)cs2)CC1 (stereo not shown) [Example I-39] | 4.55^[a] |
| C#CCOc1cccc(F)c1C1CC(c2csc(C3CCN(C(=O)CC(=O)OCCOC)CC3)n2)=NO1 (stereo not shown) [Example I-43] | 2.43^[a] |
| CCCCCC(CC)OC(=O)CC(=O)N1CCC(c2nc(C3=NOC(c4c(F)cccc4OS(C)(=O)=O)C3)cs2)CC1 (stereo not shown) [Example I-48] | 4.03^[a] |
| CCOC(=O)CC(=O)N1CCC(c2nc(C3=NOC(c4c(F)cccc4OS(C)(=O)=O)C3)cs2)CC1 (stereo not shown) [Example I-54] | 2.29^[a] |
| C#CCOc1ccccc1C1CC(c2csc(C3CCN(C(=O)CC(=O)OC(CC)CCCCC)CC3)n2)=NO1 (stereo not shown) [Example I-57] | 4.56^[a] |
| CS(=O)(=O)Oc1cccc(Cl)c1C1CC(c2csc(C3CCN(C(=O)C(Br)C(=O)OCc4ccccc4)CC3)n2)=NO1 (stereo not shown) [Example I-67] | 3.54^[a] |
| CS(=O)(=O)Oc1ccccc1C1CC(c2csc(C3CCN(C(=O)C(Br)C(=O)OCc4ccccc4)CC3)n2)=NO1 (stereo not shown) [Example I-68] | 3.31^[a] |
| C#CCOc1cccc(Cl)c1C1CC(c2csc(C3CCN(C(=O)C(Br)C(=O)OCc4ccccc4)CC3)n2)=NO1 (stereo not shown) [Example I-69] | 3.85^[a] |
| C#CCOc1ccccc1C1CC(c2csc(C3CCN(C(=O)C(Br)C(=O)OCc4ccccc4)CC3)n2)=NO1 (stereo not shown) [Example I-70] | 3.72^[a] |
| CC(C)(C)OC(=O)C(Br)C(=O)N1CCC(c2nc(C3=NOC(c4c(Cl)cccc4OS(C)(=O)=O)C3)cs2)CC1 (stereo not shown) [Example I-72] | 3.50^[a] |
| C#CCOc1ccccc1C1CC(c2csc(C3CCN(C(=O)C(Br)C(=O)OC(C)(C)C)CC3)n2)=NO1 (stereo not shown) [Example I-73] | 3.68^[a] |
| CC(C)(C)OC(=O)C(Br)C(=O)N1CCC(c2nc(C3=NOC(c4ccccc4OS(C)(=O)=O)C3)cs2)CC1 (stereo not shown) [Example I-74] | 3.24^[a] |
| CS(=O)(=O)Oc1ccccc1C1CC(c2csc(C3CCN(C(=O)CC(=O)OCc4ccccc4)CC3)n2)=NO1 (stereo not shown) [Example I-75] | 2.89^[a] |
